Experimental data published in EP4389107A1, “METHOD OF PREPARATION OF COSMETIC C[…] […] AND COSMETIC C[…] […]” (Aero-Bw K. Domagala Sp. Jawna, priority 2022, dated 2024).
Several values for one entry are separate records, joined by “and”; a condition that tells them apart may be missing. Equal entries are not always repeated.

Test system: Salmonella typhimurium TA98
Experiment: Ames test, strain TA98
Assay type: cell-based
Details: positive control at 2 µg/mL
Procedure: The aim of the study was to assess the mutagenic potential of three extracts obtained from stem cells using two strains of Salmonella typhimurium carrying two types of mutations: TA 98-reading frame shift and TA 100-base pair substitution.
The experimental procedure was carried out basing on the manufacturer's experimental protocol (Xenometrix).

O=[N+]([O-])c1ccc2c(c1)Cc1ccccc1-2 [2-nitrofluorene (2-NF), 2-nitrofluorene]
MOI (Multiplicity of induction compared to baseline): 6.9 and 5.6
